From patent US20100298141A1, “SUBSTITUTED PYRIDINE N-OXIDE HERBICIDES” (E. I. DU PONT DE NEMOURS AND COMPANY, priority 2007, published 2010)

Columns and labels:
[1] = tested on: Surinam grass; assay: Test F preemergence test; format: in vivo, Brachiaria decumbens; details: scale 0 to 100; for Surinam Grass plant response rating: 62 g ai/ha
Outline: (§1)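 Compound in a non-phytotoxic solvent blend with surfactant is applied preemergence to planted seeds or postemergence to sugarcane plants. Plants and controls stay in the greenhouse 14 to 21 days before visual comparison.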

[2] = tested on: large crabgrass; assay: Test F preemergence test; format: in vivo, Digitaria sanguinalis; details: scale 0 to 100; for Crabgrass, Large plant response rating: 62 g ai/ha
Outline: as §1

[3] = tested on: annual bluegrass; assay: Test F preemergence test; format: in vivo, Poa annua; details: scale 0 to 100; for Bluegrass plant response rating: 62 g ai/ha
Outline: as §1

[4] = tested on: dallisgrass; assay: Test F preemergence test; format: in vivo, Paspalum dilatatum; details: scale 0 to 100; for Dallisgrass plant response rating: 62 g ai/ha
Outline: as §1

[5] = tested on: southern sandbur; assay: Test F preemergence test; format: in vivo, Cenchrus echinatus; details: scale 0 to 100; for Sandbur plant response rating: 62 g ai/ha
Outline: as §1

[6] = tested on: common groundsel; assay: Test F preemergence test; format: in vivo, Senecio vulgaris; details: scale 0 to 100; for Groundsel plant response rating: 62 g ai/ha
Outline: as §1

[7] = tested on: guineagrass; assay: Test F preemergence test; format: in vivo, Panicum maximum; details: scale 0 to 100; for Guineagrass plant response rating: 62 g ai/ha
Outline: as §1

[8] = tested on: barnyardgrass; assay: Test F preemergence test; format: in vivo, Echinochloa crus-galli; details: scale 0 to 100; for Barnyardgrass plant response rating: 62 g ai/ha
Outline: as §1

[9] = tested on: common mallow; assay: Test F preemergence test; format: in vivo, Malva sylvestris; details: scale 0 to 100; for Mallow plant response rating: 62 g ai/ha
Outline: as §1

[10] = tested on: field bindweed; assay: Test F preemergence test; format: in vivo, Convolvulus arvensis; details: scale 0 to 100; for Field Bindweed plant response rating: 62 g ai/ha
Outline: as §1

[11] = tested on: Italian ryegrass; assay: Test F preemergence test; format: in vivo, Lolium multiflorum; details: scale 0 to 100; for Ryegrass, Italian plant response rating: 62 g ai/ha
Outline: as §1

[12] = tested on: mustard; assay: Test F preemergence test; format: in vivo, Brassica nigra; details: scale 0 to 100; for Black Mustard plant response rating: 62 g ai/ha
Outline: as §1

[13] = tested on: kochia; assay: Test F preemergence test; format: in vivo, Kochia scoparia; details: scale 0 to 100; for Kochia plant response rating: 62 g ai/ha
Outline: as §1

[14] = tested on: quackgrass; assay: Test F preemergence test; format: in vivo, Elytrigia repens; details: scale 0 to 100; for Quackgrass plant response rating: 62 g ai/ha
Outline: as §1

[15] = tested on: Virginia dayflower; assay: Test F preemergence test; format: in vivo, Commelina virginica; details: scale 0 to 100; for Dayflower plant response rating: 62 g ai/ha
Outline: as §1

[16] = tested on: Russian thistle; assay: Test C pre-/postemergence test; format: in vivo, Salsola kali; details: Preemergence; for Russian Thistle plant response rating: scale 0 to 100
Outline: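 Test chemicals were formulated with surfactant in a non-phytotoxic solvent and sprayed both on freshly planted seeds (preemergence) and on 1- to 4-leaf plants of 2–18 cm (postemergence). Flooded-paddy pots received compound directly into 3 cm of standing water, maintained for the test.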

[17] = tested on: common purslane; assay: Test F preemergence test; format: in vivo, Portulaca oleracea; details: scale 0 to 100; for Purslane plant response rating: 62 g ai/ha
Outline: as §1

Compound: Cn1nc(C(F)(F)F)c(C[S+]([O-])c2cccc[n+]2[O-])c1OC(F)F (centres unmarked) [Compound 3]
- Plant response rating, Surinam Grass ([1]; 8 g ai/ha, preemergence): 0
- Plant response rating, Surinam Grass ([1]; 16 g ai/ha, preemergence): 0
- Surinam Grass plant response rating ([1]; Preemergence): 95
- Plant response rating, Surinam Grass ([1]; Preemergence, 31 g ai/ha): 85
- Plant response rating, Crabgrass, Large ([2]; 8 g ai/ha, preemergence): 0
- Crabgrass, Large plant response rating ([2]; Preemergence): 100
- Plant response rating, Crabgrass, Large ([2]; Preemergence, 16 g ai/ha): 20
- Plant response rating, Crabgrass, Large ([2]; Preemergence, 31 g ai/ha): 70
- Plant response rating, Bluegrass ([3]; 8 g ai/ha, preemergence): 0
- Bluegrass plant response rating ([3]; Preemergence): 50
- Plant response rating, Bluegrass ([3]; Preemergence, 16 g ai/ha): 0
- Plant response rating, Bluegrass ([3]; Preemergence, 31 g ai/ha): 50
- Plant response rating, Dallisgrass ([4]; 8 g ai/ha, preemergence): 0
- Dallisgrass plant response rating ([4]; Preemergence): 98
- Plant response rating, Dallisgrass ([4]; Preemergence, 16 g ai/ha): 0
- Plant response rating, Dallisgrass ([4]; Preemergence, 31 g ai/ha): 75
- Plant response rating, Sandbur ([5]; 8 g ai/ha, preemergence): 20
- Plant response rating, Sandbur ([5]; 16 g ai/ha, preemergence): 65
- Sandbur plant response rating ([5]; Preemergence): 95
- Plant response rating, Sandbur ([5]; Preemergence, 31 g ai/ha): 90
- Plant response rating, Groundsel ([6]; 8 g ai/ha, preemergence): 0
- Groundsel plant response rating ([6]; Preemergence): 100
- Plant response rating, Groundsel ([6]; Preemergence, 16 g ai/ha): 0
- Plant response rating, Groundsel ([6]; Preemergence, 31 g ai/ha): 60
- Plant response rating, Guineagrass ([7]; 8 g ai/ha, preemergence): 0
- Guineagrass plant response rating ([7]; Preemergence): 100
- Plant response rating, Guineagrass ([7]; Preemergence, 16 g ai/ha): 90
- Plant response rating, Guineagrass ([7]; Preemergence, 31 g ai/ha): 100
- Plant response rating, Barnyardgrass ([8]; 8 g ai/ha, preemergence): 40
- Barnyardgrass plant response rating ([8]; Preemergence): 100
- Plant response rating, Barnyardgrass ([8]; Preemergence, 16 g ai/ha): 80
- Plant response rating, Barnyardgrass ([8]; Preemergence, 31 g ai/ha): 90
- Plant response rating, Mallow ([9]; 8 g ai/ha, preemergence): 0
- Mallow plant response rating ([9]; Preemergence): 75
- Plant response rating, Mallow ([9]; Preemergence, 16 g ai/ha): 0
- Plant response rating, Mallow ([9]; Preemergence, 31 g ai/ha): 0
- Plant response rating, Field Bindweed ([10]; 8 g ai/ha, preemergence): 0
- Field Bindweed plant response rating ([10]; Preemergence): 25
- Plant response rating, Field Bindweed ([10]; Preemergence, 16 g ai/ha): 0
- Plant response rating, Field Bindweed ([10]; Preemergence, 31 g ai/ha): 25
- Plant response rating, Ryegrass, Italian ([11]; 8 g ai/ha, preemergence): 0
- Ryegrass, Italian plant response rating ([11]; Preemergence): 80
- Plant response rating, Ryegrass, Italian ([11]; Preemergence, 16 g ai/ha): 30
- Plant response rating, Ryegrass, Italian ([11]; Preemergence, 31 g ai/ha): 65
- Plant response rating, Black Mustard ([12]; 8 g ai/ha, preemergence): 35
- Black Mustard plant response rating ([12]; Preemergence): 100
- Plant response rating, Black Mustard ([12]; Preemergence, 16 g ai/ha): 60
- Plant response rating, Black Mustard ([12]; Preemergence, 31 g ai/ha): 95
- Plant response rating, Kochia ([13]; 8 g ai/ha, preemergence): 20
- Kochia plant response rating ([13]; Preemergence): 100
- Plant response rating, Kochia ([13]; Preemergence, 16 g ai/ha): 30
- Plant response rating, Kochia ([13]; Preemergence, 31 g ai/ha): 65
- Plant response rating, Quackgrass ([14]; 8 g ai/ha, preemergence): 0
- Quackgrass plant response rating ([14]; Preemergence): 75
- Plant response rating, Quackgrass ([14]; Preemergence, 16 g ai/ha): 15
- Plant response rating, Quackgrass ([14]; Preemergence, 31 g ai/ha): 70
- Plant response rating, Dayflower ([15]; 8 g ai/ha, preemergence): 0
- Dayflower plant response rating ([15]; Preemergence): 90
- Plant response rating, Dayflower ([15]; Preemergence, 16 g ai/ha): 0
- Plant response rating, Dayflower ([15]; Preemergence, 31 g ai/ha): 90
- Russian Thistle plant response rating ([16]; 31 g ai/ha): 0
- Plant response rating, Purslane ([17]; 8 g ai/ha, preemergence): 0
- Purslane plant response rating ([17]; Preemergence): 100
- Plant response rating, Purslane ([17]; Preemergence, 16 g ai/ha): 0
- Plant response rating, Purslane ([17]; Preemergence, 31 g ai/ha): 60

Compound: Cc1cc[n+]([O-])c([S+]([O-])Cc2c(C(F)(F)F)nn(C)c2Cl)c1 (racemic) [Compound 20]
- Plant response rating, Surinam Grass ([1]; 8 g ai/ha, preemergence): 0
- Plant response rating, Surinam Grass ([1]; 16 g ai/ha, preemergence): 0
- Surinam Grass plant response rating ([1]; Preemergence): 65
- Plant response rating, Surinam Grass ([1]; Preemergence, 31 g ai/ha): 60
- Plant response rating, Crabgrass, Large ([2]; 8 g ai/ha, preemergence): 0
- Crabgrass, Large plant response rating ([2]; Preemergence): 80
- Plant response rating, Crabgrass, Large ([2]; Preemergence, 16 g ai/ha): 10
- Plant response rating, Crabgrass, Large ([2]; Preemergence, 31 g ai/ha): 70
- Plant response rating, Bluegrass ([3]; 8 g ai/ha, preemergence): 0
- Bluegrass plant response rating ([3]; Preemergence): 40
- Plant response rating, Bluegrass ([3]; Preemergence, 16 g ai/ha): 0
- Plant response rating, Bluegrass ([3]; Preemergence, 31 g ai/ha): 0
- Plant response rating, Dallisgrass ([4]; 8 g ai/ha, preemergence): 0
- Dallisgrass plant response rating ([4]; Preemergence): 75
- Plant response rating, Dallisgrass ([4]; Preemergence, 16 g ai/ha): 0
- Plant response rating, Dallisgrass ([4]; Preemergence, 31 g ai/ha): 20
- Plant response rating, Sandbur ([5]; 8 g ai/ha, preemergence): 0
- Plant response rating, Sandbur ([5]; 16 g ai/ha, preemergence): 0
- Sandbur plant response rating ([5]; Preemergence): 75
- Plant response rating, Sandbur ([5]; Preemergence, 31 g ai/ha): 60
- Plant response rating, Groundsel ([6]; 8 g ai/ha, preemergence): 0
- Groundsel plant response rating ([6]; Preemergence): 0
- Plant response rating, Groundsel ([6]; Preemergence, 16 g ai/ha): 0
- Plant response rating, Groundsel ([6]; Preemergence, 31 g ai/ha): 0
- Plant response rating, Guineagrass ([7]; 8 g ai/ha, preemergence): 0
- Guineagrass plant response rating ([7]; Preemergence): 95
- Plant response rating, Guineagrass ([7]; Preemergence, 16 g ai/ha): 0
- Plant response rating, Guineagrass ([7]; Preemergence, 31 g ai/ha): 90
- Plant response rating, Barnyardgrass ([8]; 8 g ai/ha, preemergence): 0
- Barnyardgrass plant response rating ([8]; Preemergence): 90
- Plant response rating, Barnyardgrass ([8]; Preemergence, 16 g ai/ha): 40
- Plant response rating, Barnyardgrass ([8]; Preemergence, 31 g ai/ha): 80
- Plant response rating, Mallow ([9]; 8 g ai/ha, preemergence): 0
- Mallow plant response rating ([9]; Preemergence): 60
- Plant response rating, Mallow ([9]; Preemergence, 16 g ai/ha): 0
- Plant response rating, Mallow ([9]; Preemergence, 31 g ai/ha): 25
- Plant response rating, Field Bindweed ([10]; 8 g ai/ha, preemergence): 0
- Field Bindweed plant response rating ([10]; Preemergence): 15
- Plant response rating, Field Bindweed ([10]; Preemergence, 16 g ai/ha): 0
- Plant response rating, Field Bindweed ([10]; Preemergence, 31 g ai/ha): 0
- Plant response rating, Ryegrass, Italian ([11]; 8 g ai/ha, preemergence): 0
- Ryegrass, Italian plant response rating ([11]; Preemergence): 65
- Plant response rating, Ryegrass, Italian ([11]; Preemergence, 16 g ai/ha): 10
- Plant response rating, Ryegrass, Italian ([11]; Preemergence, 31 g ai/ha): 35
- Plant response rating, Black Mustard ([12]; 8 g ai/ha, preemergence): 0
- Black Mustard plant response rating ([12]; Preemergence): 90
- Plant response rating, Black Mustard ([12]; Preemergence, 16 g ai/ha): 50
- Plant response rating, Black Mustard ([12]; Preemergence, 31 g ai/ha): 60
- Plant response rating, Kochia ([13]; 8 g ai/ha, preemergence): 0
- Kochia plant response rating ([13]; Preemergence): 50
- Plant response rating, Kochia ([13]; Preemergence, 16 g ai/ha): 0
- Plant response rating, Kochia ([13]; Preemergence, 31 g ai/ha): 0
- Plant response rating, Quackgrass ([14]; 8 g ai/ha, preemergence): 0
- Quackgrass plant response rating ([14]; Preemergence): 60
- Plant response rating, Quackgrass ([14]; Preemergence, 16 g ai/ha): 0
- Plant response rating, Quackgrass ([14]; Preemergence, 31 g ai/ha): 0
- Plant response rating, Dayflower ([15]; 8 g ai/ha, preemergence): 0
- Dayflower plant response rating ([15]; Preemergence): 60
- Plant response rating, Dayflower ([15]; Preemergence, 16 g ai/ha): 0
- Plant response rating, Dayflower ([15]; Preemergence, 31 g ai/ha): 0
- Russian Thistle plant response rating ([16]; 62 g ai/ha): 100
- Plant response rating, Russian Thistle ([16]; 31 g ai/ha, scale 0 to 100 (0 no effect, 100 complete control)): 100
- Plant response rating, Purslane ([17]; 8 g ai/ha, preemergence): 0
- Purslane plant response rating ([17]; Preemergence): 25
- Plant response rating, Purslane ([17]; Preemergence, 16 g ai/ha): 15
- Plant response rating, Purslane ([17]; Preemergence, 31 g ai/ha): 15
